{"source": "patent US20260373193A1", "about": "“CARCINOGENESIS REDUCTION WITH PENTAAZA MACROCYLIC RING COMPLEX” (GALERA LABS, LLC, priority 2023, published 2026)", "key": {"oral mucositis": {"tested_on": "oral mucositis", "conditions": "head-and-neck cancer patients, chemoradiation, Phase IIB; cited from earlier work"}, "hepatosplenomegaly": {"tested_on": "hepatosplenomegaly", "assay": "incidence of hepatosplenomegaly at necropsy", "assay_type": "in vivo, mouse (female BALB/c)", "conditions": "for # Enlarged (hepatosplenomegaly) / % Yield (percentage of mice with hepatosplenomegaly): GC4419 24 mg/kg i.p.", "experimental": "All animal studies conducted used female BALB/c mice irradiated at 77-91 days of age and housed for a lifetime study to determine rates of carcinogenesis and survival. Animals were purchased from Charles River Laboratory, shipped to Brookhaven National Laboratory, and irradiated with the doses and ion species described below.\nAnimals were treated or not with GC4419. Those animals treated with GC4419 followed the following strategy. GC4419 was delivered at a dose of 24 mg/kg (mice were weighed prior to drug delivery) interperitoneally (i.p.) at roughly 45-60 minutes prior to radiation exposure. GC4419 was then provided i.p. for the next 6 days, and the animals were shipped to UT Southwestern (UTSW) Medical Center for temporary quarantine before returning to the animal facility. Upon return to UTSW the animals were treated with GC4419 i.p. weekly for another 11 weeks for a total of 12 weeks on treatment.\nRadiation exposures were whole body. The galactic cosmic ray (GCR) simulation exposures used the beam line at the NASA Space Radiation Laboratory at Brookhaven National Lab (BNL) and the γ-ray exposures used a ^137Cs source at BNL. Subsequent to single dose irradiation, animals were returned to their cages.\nGalactic cosmic rays (GCR) are heavy ion radiation characteristic of the deep space environment, and the GCR simulation (GCRsim) at BNL mimics the complex radiation environment in space. The GCRsim ions used are described in Table 1 below.\nPathological endpoints were also considered. Specifically, lung cancer induction, or carcinogenesis, and other tumors that are evident in numbers large enough to consider as secondary endpoints. These endpoints are described in the following tables and figure. The term “masses” is used to describe an abnormal growth, evident by eye, within a given tissue; for example, the term “lung masses” is used to describe abnormal tissues found in the lung that are collected for pathologic examination.\nGiven prior experience with the mouse model of radiation-induced carcinogenesis, it is expected that most, if not all, of the lung masses are tumors. For the ovarian masses, some proportion of the masses are expected to be tumors. For observations of hepatosplenomegaly, many of the enlarged livers and spleens may not reflect tumors of those organs. These may, however, may be present as result of hematologic malignancies, such as leukemias, but that was not assessed in this experiment.\nTable 4 presents the incidence of hepatosplenomegaly observed at necropsy by treatment cohort, in general through approximately 700 days, for certain γ-ray cohorts through approximately 600 days post-irradiation, and for unirradiated animals treated with GC4419 (Control+GC4419) cohort through approximately 400 days post-irradiation."}}, "data": [{"molecule": "[Cl][Mn][Cl].c1cc2nc(c1)CN[C@H]1CCCC[C@@H]1NCCN[C@H]1CCCC[C@@H]1NC2", "note": "[GC4419]", "values": [{"measurement": "oral mucositis", "setting": "oral mucositis", "result": "reduce oral mucositis"}, {"measurement": "# Enlarged (hepatosplenomegaly)", "setting": "hepatosplenomegaly; GCRsim 0.4 Gy, 224 mice, approx. 700 days", "result": 33}, {"measurement": "% Yield (percentage of mice with hepatosplenomegaly)", "setting": "hepatosplenomegaly; GCRsim 0.4 Gy, 224 mice, approx. 700 days, untreated pair 13.9", "result": 14.7, "unit": "%"}, {"measurement": "# Enlarged (hepatosplenomegaly)", "setting": "hepatosplenomegaly; GCRsim 0.75 Gy, 248 mice, approx. 700 days", "result": 36}, {"measurement": "% Yield (percentage of mice with hepatosplenomegaly)", "setting": "hepatosplenomegaly; GCRsim 0.75 Gy, 248 mice, approx. 700 days, untreated pair 7.7", "result": 14.5, "unit": "%"}, {"measurement": "# Enlarged (hepatosplenomegaly)", "setting": "hepatosplenomegaly; unirradiated (0 Gy), 235 mice, approx. 400 days", "result": 1}, {"measurement": "% Yield (percentage of mice with hepatosplenomegaly)", "setting": "hepatosplenomegaly; unirradiated (0 Gy), 235 mice, approx. 400 days, untreated pair 5.1", "result": 0.4, "unit": "%"}, {"measurement": "hepatosplenomegaly incidence vs untreated", "setting": "hepatosplenomegaly; within paired cohorts", "result": "no consistent trend to increased or decreased incidence within paired cohorts"}, {"measurement": "# Enlarged (hepatosplenomegaly)", "setting": "hepatosplenomegaly; γ-ray 0.75 Gy, 248 mice, certain γ-ray cohorts approx. 600 days", "result": 9}, {"measurement": "% Yield (percentage of mice with hepatosplenomegaly)", "setting": "hepatosplenomegaly; γ-ray 0.75 Gy, 248 mice, certain γ-ray cohorts approx. 600 days, untreated pair 10.6", "result": 3.6, "unit": "%"}, {"measurement": "# Enlarged (hepatosplenomegaly)", "setting": "hepatosplenomegaly; γ-ray 1.5 Gy, 248 mice, certain γ-ray cohorts approx. 600 days", "result": 17}, {"measurement": "% Yield (percentage of mice with hepatosplenomegaly)", "setting": "hepatosplenomegaly; γ-ray 1.5 Gy, 248 mice, certain γ-ray cohorts approx. 600 days, untreated pair 7.5", "result": 6.8, "unit": "%"}]}]}
